Test results from publication PMC10712727, “Safety, Tolerability, and Pharmacokinetics of Senaparib, a Novel PARP1/2 Inhibitor, in Chinese Patients With Advanced Solid Tumors: A Phase I Trial” (The Oncologist, 2023).

System: patients with advanced solid tumors
Experiment: Safety: treatment-emergent and senaparib-related adverse events graded per NCI CTCAE v4.03
Type: in vivo
Description: This phase I, open-label, multicenter, dose-escalation, and dose-expansion study was conducted at three national clinical institutions in China. […] At baseline, all patients enrolled in the dose-escalation phase had to have at least one evaluable lesion, and those in the dose-expansion period had to have at least one measurable lesion, according to Response Evaluation Criteria in Solid Tumors version 1.1 (RECIST v1.1).[16] Entry to the dose-expansion cohort required the presence of a BRCA mutation, with the exception of patients with ovarian carcinoma, fallopian tube carcinoma, and primary peritoneal carcinoma. Full study eligibility criteria are provided in Supplementary Table S1.
Dose escalation was conducted using a modified Fibonacci 3 + 3 method (Supplementary Fig. S1).[17] Patients were administered oral senaparib from a planned starting dose of 2 mg once daily (QD), with preliminary dose escalation to 120 mg via nine dose groups, in order of their entry into the study. At a given dose level, each patient received a single dose of senaparib followed by a 7-day washout period. They then entered a continuous dosing period to confirm the safety and PK profile, in which they received senaparib QD from day 1 to day 21 of each 3-week cycle. Progression to the next higher dose required approval from the Data Safety Monitoring Committee (DSMC) upon review of the safety and PK data of the previous dose. A 50-mg twice-daily (BID) dosing group was added (planned enrollment, n = 6 patients) based on a DSMC review of the safety, PK, and efficacy analysis of the completed QD dose groups in the phase I clinical trial of senaparib dose escalation in Australia (NCT03507543), which commenced prior to the start of this trial.
The dose-expansion period included 3 populations: dose groups in which at least one patient achieved complete response (CR) or partial response (PR) per RECIST v1.1[16] and 1 dose group higher (evaluated for safety), as well as the dose group at the maximum tolerated dose (MTD)/recommended phase II dose (RP2D). Each of these groups included those patients in the respective dose-escalation group plus a planned additional 10 patients (approximately 20 patients in the MTD/RP2D group) with BRCA^mut+ solid tumors (ovarian, breast, or prostate cancer were preferred, and ovarian cancer could be BRCA wild type). Patients received senaparib monotherapy orally QD or BID (50-mg dose only) over each 3-week cycle until disease progression or unacceptable toxicity.
DLTs were predefined toxicities (Supplementary Table S2) recorded over the 7 days following the single-dose administration of senaparib and during the first treatment cycle (day 1-day 21) for each dose group in the dose-escalation period only. The MTD was defined as the maximum dose at which ≤1/6 patients experienced a DLT. Senaparib PK parameters were derived from blood samples collected from patients after the single administration, and at regular intervals during the first cycle of the dose-escalation and dose-expansion periods. Plasma concentrations of senaparib were determined using high-performance liquid chromatography-tandem mass spectrometry. Tumor response was assessed every 6 weeks per RECIST v1.1,[16] recording objective response rate (ORR), disease control rate (DCR), duration of response (DOR), and progression-free survival (PFS) by dose level for all patients and for those harboring BRCA^mut+ tumors.

## O=C(c1cc(Cn2c(=O)[nH]c(=O)c3c(F)cccc32)ccc1F)N1CCN(c2ncccn2)CC1 [Senaparib]
2 mg QD n = 1
  ALT increased TRAE, All: 0 n (%)
  ALT increased TRAE, Gr≥3: 0 n (%)
  AST increased TRAE, All: 0 n (%)
  AST increased TRAE, Gr≥3: 0 n (%)
  Anemia TRAE, All: 0 n (%)
  Anemia TRAE, Gr≥3: 0 n (%)
  Any TEAE, All: 1 (100) n (%)
  Any TEAE, Gr≥3: 1 (100) n (%)
  Any TEAE, events: 9 n ev
  Any TEAE, patients: 1 (100) n (%)
  Any TRAE, All: 1 (100) n (%)
  Any TRAE, Gr≥3: 0 n (%)
  Appetite decreased TRAE, All: 1 (100) n (%)
  Appetite decreased TRAE, Gr≥3: 0 n (%)
  Asthenia TRAE, All: 0 n (%)
  Asthenia TRAE, Gr≥3: 0 n (%)
  Blood bilirubin increased TRAE, All: 0 n (%)
  Blood bilirubin increased TRAE, Gr≥3: 0 n (%)
  Blood creatinine increased TRAE, All: 0 n (%)
  Blood creatinine increased TRAE, Gr≥3: 0 n (%)
  Hypokalemia TRAE, All: 1 (100) n (%)
  Hypokalemia TRAE, Gr≥3: 0 n (%)
  Nausea TRAE, All: 0 n (%)
  Nausea TRAE, Gr≥3: 0 n (%)
  Neutrophil count decreased TRAE, All: 0 n (%)
  Neutrophil count decreased TRAE, Gr≥3: 0 n (%)
  Platelet count decreased TRAE, All: 0 n (%)
  Platelet count decreased TRAE, Gr≥3: 0 n (%)
  SAEs, events: 1 n ev
  SAEs, patients: 1 (100) n (%)
  TEAE Grade ≥3, events: 1 n ev
  TEAE Grade ≥3, patients: 1 (100) n (%)
  TEAEs leading to death, events: 0 n ev
  TEAEs leading to death, patients: 0 n (%)
  TEAEs leading to dose discontinuation, events: 0 n ev
  TEAEs leading to dose discontinuation, patients: 0 n (%)
  TEAEs leading to dose interruption, events: 0 n ev
  TEAEs leading to dose interruption, patients: 0 n (%)
  TEAEs leading to dose reduction, events: 0 n ev
  TEAEs leading to dose reduction, patients: 0 n (%)
  TRAEs Grade ≥3, events: 0 n ev
  TRAEs Grade ≥3, patients: 0 n (%)
  TRAEs, events: 6 n ev
  TRAEs, patients: 1 (100) n (%)
  Vomiting TRAE, All: 0 n (%)
  Vomiting TRAE, Gr≥3: 0 n (%)
  WBC decreased TRAE, All: 0 n (%)
  WBC decreased TRAE, Gr≥3: 0 n (%)
5 mg QD n = 3
  ALT increased TRAE, All: 0 n (%)
  ALT increased TRAE, Gr≥3: 0 n (%)
  AST increased TRAE, All: 0 n (%)
  AST increased TRAE, Gr≥3: 0 n (%)
  Anemia TRAE, All: 2 (66.7) n (%)
  Anemia TRAE, Gr≥3: 1 (33.3) n (%)
  Any TEAE, All: 3 (100) n (%)
  Any TEAE, Gr≥3: 3 (100) n (%)
  Any TEAE, events: 28 n ev
  Any TEAE, patients: 3 (100) n (%)
  Any TRAE, All: 3 (100) n (%)
  Any TRAE, Gr≥3: 1 (33.3) n (%)
  Appetite decreased TRAE, All: 1 (33.3) n (%)
  Appetite decreased TRAE, Gr≥3: 0 n (%)
  Asthenia TRAE, All: 1 (33.3) n (%)
  Asthenia TRAE, Gr≥3: 0 n (%)
  Blood bilirubin increased TRAE, All: 1 (33.3) n (%)
  Blood bilirubin increased TRAE, Gr≥3: 0 n (%)
  Blood creatinine increased TRAE, All: 0 n (%)
  Blood creatinine increased TRAE, Gr≥3: 0 n (%)
  Hypokalemia TRAE, All: 0 n (%)
  Hypokalemia TRAE, Gr≥3: 0 n (%)
  Nausea TRAE, All: 1 (33.3) n (%)
  Nausea TRAE, Gr≥3: 0 n (%)
  Neutrophil count decreased TRAE, All: 1 (33.3) n (%)
  Neutrophil count decreased TRAE, Gr≥3: 0 n (%)
  Platelet count decreased TRAE, All: 1 (33.3) n (%)
  Platelet count decreased TRAE, Gr≥3: 0 n (%)
  SAEs, events: 0 n ev
  SAEs, patients: 0 n (%)
  TEAE Grade ≥3, events: 5 n ev
  TEAE Grade ≥3, patients: 3 (100) n (%)
  TEAEs leading to death, events: 0 n ev
  TEAEs leading to death, patients: 0 n (%)
  TEAEs leading to dose discontinuation, events: 0 n ev
  TEAEs leading to dose discontinuation, patients: 0 n (%)
  TEAEs leading to dose interruption, events: 0 n ev
  TEAEs leading to dose interruption, patients: 0 n (%)
  TEAEs leading to dose reduction, events: 0 n ev
  TEAEs leading to dose reduction, patients: 0 n (%)
  TRAEs Grade ≥3, events: 1 n ev
  TRAEs Grade ≥3, patients: 1 (33.3) n (%)
  TRAEs, events: 13 n ev
  TRAEs, patients: 3 (100) n (%)
  Vomiting TRAE, All: 0 n (%)
  Vomiting TRAE, Gr≥3: 0 n (%)
  WBC decreased TRAE, All: 1 (33.3) n (%)
  WBC decreased TRAE, Gr≥3: 0 n (%)
10 mg QD n = 3
  ALT increased TRAE, All: 1 (33.3) n (%)
  ALT increased TRAE, Gr≥3: 0 n (%)
  AST increased TRAE, All: 1 (33.3) n (%)
  AST increased TRAE, Gr≥3: 0 n (%)
  Anemia TRAE, All: 1 (33.3) n (%)
  Anemia TRAE, Gr≥3: 0 n (%)
  Any TEAE, All: 3 (100) n (%)
  Any TEAE, Gr≥3: 0 n (%)
  Any TEAE, events: 10 n ev
  Any TEAE, patients: 3 (100) n (%)
  Any TRAE, All: 3 (100) n (%)
  Any TRAE, Gr≥3: 0 n (%)
  Appetite decreased TRAE, All: 1 (33.3) n (%)
  Appetite decreased TRAE, Gr≥3: 0 n (%)
  Asthenia TRAE, All: 0 n (%)
  Asthenia TRAE, Gr≥3: 0 n (%)
  Blood bilirubin increased TRAE, All: 0 n (%)
  Blood bilirubin increased TRAE, Gr≥3: 0 n (%)
  Blood creatinine increased TRAE, All: 0 n (%)
